According to patent US9340574B2, “Inhibitors of protein tyrosine phosphatases” (Indiana University Research and Technology Corporation, priority 2012, dated 2016):

Experiments:
PTPβ = PTPβ (Homo sapiens, UniProt P23467); experiment: pNPP hydrolysis enzyme assay, PTPβ; assay type: biochemical
Experimental: (§1) Enzyme kinetic assay. PTP activity was assayed using p-nitrophenyl phosphate (pNPP) as a substrate in 3,3-dimethylglutarate buffer (50 mM 3,3-dimethylglutarate, pH 7.0, 1 mM EDTA, 150 mM NaCl, 2 mM DTT, 0.1 mg/mL BSA) at 25° C. The assays were performed in 96-well plates. Normally, to determine the IC50 values, the reaction was initiated by the addition of enzyme (final concentration at 10 nM) to a reaction mixture (0.2 mL) containing 2 mM (Km for the substrate) pNPP with various concentrations of inhibitors. The reaction rate was measured using a SpectraMax Plus 384 Microplate Spectrophotometer (Molecular Devices). To determine the mode of inhibition, the reactions were initiated by the addition of PTP-MEG2 to the reaction mixtures (0.2 mL) containing various concentrations of pNPP with different concentrations of the inhibitor 7. Data were fitted using SigmaPlot Enzyme Kinetics Module (Systat Software, Inc.).

SHP2 = SHP2 (Homo sapiens (Human), UniProt Q06124); experiment: pNPP hydrolysis enzyme assay, SHP2; assay type: biochemical
Sequence of SHP2 (Q06124 whole entry, species assumed): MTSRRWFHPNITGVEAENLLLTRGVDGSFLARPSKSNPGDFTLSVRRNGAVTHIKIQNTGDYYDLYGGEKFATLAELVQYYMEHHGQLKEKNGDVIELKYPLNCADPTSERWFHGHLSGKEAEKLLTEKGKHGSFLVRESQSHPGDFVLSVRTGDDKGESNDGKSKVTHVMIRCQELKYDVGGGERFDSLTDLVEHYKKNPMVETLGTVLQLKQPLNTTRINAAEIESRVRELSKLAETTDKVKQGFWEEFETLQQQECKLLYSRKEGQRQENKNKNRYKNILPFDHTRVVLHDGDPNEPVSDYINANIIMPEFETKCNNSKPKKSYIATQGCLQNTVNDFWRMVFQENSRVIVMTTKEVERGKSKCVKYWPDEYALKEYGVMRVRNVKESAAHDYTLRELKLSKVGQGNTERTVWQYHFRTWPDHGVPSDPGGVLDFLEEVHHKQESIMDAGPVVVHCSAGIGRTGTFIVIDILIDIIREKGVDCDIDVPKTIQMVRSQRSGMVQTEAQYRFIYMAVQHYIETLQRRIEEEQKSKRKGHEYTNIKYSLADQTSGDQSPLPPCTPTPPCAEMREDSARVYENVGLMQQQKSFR
Experimental: as §1

SHP1 = SHP1 (Homo sapiens (Human), UniProt P29350); experiment: pNPP hydrolysis enzyme assay, SHP1; assay type: biochemical
Sequence of SHP1 (P29350 whole entry): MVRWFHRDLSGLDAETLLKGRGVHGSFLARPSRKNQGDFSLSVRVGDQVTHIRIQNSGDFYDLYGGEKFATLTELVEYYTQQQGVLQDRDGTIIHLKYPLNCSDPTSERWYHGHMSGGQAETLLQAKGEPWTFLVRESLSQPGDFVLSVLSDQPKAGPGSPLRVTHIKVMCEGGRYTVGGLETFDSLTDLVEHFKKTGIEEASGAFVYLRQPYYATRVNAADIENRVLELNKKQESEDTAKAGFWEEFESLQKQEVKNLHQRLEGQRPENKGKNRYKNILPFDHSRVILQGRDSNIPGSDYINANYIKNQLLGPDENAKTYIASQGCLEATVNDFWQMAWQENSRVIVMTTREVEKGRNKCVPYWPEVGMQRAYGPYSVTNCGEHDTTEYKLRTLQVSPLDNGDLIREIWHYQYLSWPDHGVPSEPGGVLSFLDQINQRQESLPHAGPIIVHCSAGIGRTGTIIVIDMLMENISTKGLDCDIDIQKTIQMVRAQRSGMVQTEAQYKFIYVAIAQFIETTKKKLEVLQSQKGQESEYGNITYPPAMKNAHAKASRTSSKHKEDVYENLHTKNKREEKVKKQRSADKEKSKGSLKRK
Experimental: as §1

[1] = test system: insulin signaling in mouse primary hepatocytes; experiment: Insulin signaling in mouse primary hepatocytes (Western blot); assay type: cell-based; conditions: for increase of phosphorylated IR (Tyr1162/1163): 1 hour pretreatment, 5 nM insulin 5 minutes, vs DMSO
Experimental: (§2) FIGS. 4A-B depict the ability of PTP-MEG2 inhibitor Compound 7 to sensitize insulin signaling in primary hepatocytes. […] Mouse primary hepatocytes were cultured in 0.5% FBS DMEM medium overnight. Prior to insulin stimulation, the cells were pretreated with Compound 7 or 8 for 1 hour. Then the cells were stimulated with 5 nM insulin for 5 minutes. Insulin signaling was analyzed by Western Blots using phospho-specific antibodies. […] Mouse primary hepatocytes were cultured in DMEM medium plus 0.5% FBS for overnight in the presence or absence of insulin or Compound 7 or 8. Then the cells were harvested for mRNA isolation and gene expression analysis using real-time PCR. The mRNA levels of Foxo1 target genes were normalized with Ppia as an internal control. Data are presented as mean±SEM. *, P<0.05 for Compound 7 vs. DMSO; #, P<0.05 for INS+Compound 7 vs. INS alone.
FIG. 10 depicts the time course of pIR (Tyr 1162/63) level. Primary hepatocyte cells were starved overnight. Prior to insulin stimulation, the cells were preincubated with either vehicle DMSO, Compound 7, or Compound 8 for 1 hour. Then the cells were stimulated with 5 nM Insulin for 0, 5, 30, 60 min. Cell lysates were harvested for Western Blot, using anti-pIR (Tyr 1162/63) antibodies.
Mouse primary hepatocytes were isolated and cultured in DMEM medium with 0.5% FBS for 12 hours, and then were incubated with either vehicle DMSO, Compound 7 (100 nM), or Compound 8 (100 nM) for one hour. Phosphorylated IR, Gsk3β, and Foxo1 and the corresponding total proteins were analyzed by Western blots.
PTP-MEG2 inhibitor Compound 7 augments insulin signaling in cells. Given the excellent potency and selectivity of Compound 7 toward PTP-MEG2, we proceeded to evaluate its effect on PTP-MEG2-dependent signaling inside the cell. To assess the effects of Compound 7 on insulin signaling, we pretreated mouse primary hepatocytes with Compound 7 for 1 hour and then stimulated the cells with 5 nM insulin for 5 minutes. […] Remarkably, the phosphorylated form of IR was increased 50% and 100% at concentrations of 50 nM (1.5×Ki) and 100 nM of Compound 7, respectively (FIG. 4A and FIG. 8). […] Phosphorylation of Akt (Ser473) was increased by 3.1 and 4.5 fold; phosphorylation of GSK-3β (Ser9) was increased by 1.5 and 2.0 fold; and phosphorylation of Foxo1 (Ser253) was increased by 2.1 and 2.9 fold at 100 and 200 nM concentrations of Compound 7, respectively.
Western blot analysis. Cells were homogenized in the lysis buffer (50 mM Hepes, pH 7.5, 150 mM NaCl, 10% Glycerol, 1% Triton X-100, 1.5 mM MgCl2, 1 mM EGTA, 10 μM Sodium Pyrophosphate, 100 mM sodium fluoride and freshly added 100 μM sodium vanadate, 1 mM PMSF, 10 μg/ml Aprotinin, and 10 μg/mL Leupeptin). Protein extracts were resolved on an SDS-PAGE gel and transferred to nitrocellulose membrane. Proteins were probed using the following antibodies: IR(pY1162/63), IR (Santa Cruz Biotechnology), Akt(pS473), Aid, GSK3β(pS9), GSK3β, Foxo1(pS256), Foxo1, Erk1/2(pT202/Y204), Erk1/2 (Cell Signaling Technology). Protein signals were detected by incubation with HRP-conjugated secondary antibodies, followed by ECL detection reagent (Pierce). Western blots were scanned and quantified using the Quantity One software (Bio-Rad).

[2] = test system: Foxo1 target genes in mouse primary hepatocytes; experiment: Foxo1 target gene expression in mouse primary hepatocytes (real-time PCR); assay type: cell-based; conditions: with insulin, overnight, normalized with Ppia
Experimental: as §2
RNA isolation and real-time PCR. RNA isolation was performed as described previously (Jänne, et al. Nat. Rev. Drug Discov. 2009, 8, 709-723). Real-time RT-PCR was performed in two steps: first, cDNA was synthesized using a cDNA synthesis kit (Applied Biosystems Inc.); second, cDNA was analyzed by real-time PCR using SYBR Green Master Mix (Promega). […]

Sequence of PTPβ (P23467 23-1997 limits assumed): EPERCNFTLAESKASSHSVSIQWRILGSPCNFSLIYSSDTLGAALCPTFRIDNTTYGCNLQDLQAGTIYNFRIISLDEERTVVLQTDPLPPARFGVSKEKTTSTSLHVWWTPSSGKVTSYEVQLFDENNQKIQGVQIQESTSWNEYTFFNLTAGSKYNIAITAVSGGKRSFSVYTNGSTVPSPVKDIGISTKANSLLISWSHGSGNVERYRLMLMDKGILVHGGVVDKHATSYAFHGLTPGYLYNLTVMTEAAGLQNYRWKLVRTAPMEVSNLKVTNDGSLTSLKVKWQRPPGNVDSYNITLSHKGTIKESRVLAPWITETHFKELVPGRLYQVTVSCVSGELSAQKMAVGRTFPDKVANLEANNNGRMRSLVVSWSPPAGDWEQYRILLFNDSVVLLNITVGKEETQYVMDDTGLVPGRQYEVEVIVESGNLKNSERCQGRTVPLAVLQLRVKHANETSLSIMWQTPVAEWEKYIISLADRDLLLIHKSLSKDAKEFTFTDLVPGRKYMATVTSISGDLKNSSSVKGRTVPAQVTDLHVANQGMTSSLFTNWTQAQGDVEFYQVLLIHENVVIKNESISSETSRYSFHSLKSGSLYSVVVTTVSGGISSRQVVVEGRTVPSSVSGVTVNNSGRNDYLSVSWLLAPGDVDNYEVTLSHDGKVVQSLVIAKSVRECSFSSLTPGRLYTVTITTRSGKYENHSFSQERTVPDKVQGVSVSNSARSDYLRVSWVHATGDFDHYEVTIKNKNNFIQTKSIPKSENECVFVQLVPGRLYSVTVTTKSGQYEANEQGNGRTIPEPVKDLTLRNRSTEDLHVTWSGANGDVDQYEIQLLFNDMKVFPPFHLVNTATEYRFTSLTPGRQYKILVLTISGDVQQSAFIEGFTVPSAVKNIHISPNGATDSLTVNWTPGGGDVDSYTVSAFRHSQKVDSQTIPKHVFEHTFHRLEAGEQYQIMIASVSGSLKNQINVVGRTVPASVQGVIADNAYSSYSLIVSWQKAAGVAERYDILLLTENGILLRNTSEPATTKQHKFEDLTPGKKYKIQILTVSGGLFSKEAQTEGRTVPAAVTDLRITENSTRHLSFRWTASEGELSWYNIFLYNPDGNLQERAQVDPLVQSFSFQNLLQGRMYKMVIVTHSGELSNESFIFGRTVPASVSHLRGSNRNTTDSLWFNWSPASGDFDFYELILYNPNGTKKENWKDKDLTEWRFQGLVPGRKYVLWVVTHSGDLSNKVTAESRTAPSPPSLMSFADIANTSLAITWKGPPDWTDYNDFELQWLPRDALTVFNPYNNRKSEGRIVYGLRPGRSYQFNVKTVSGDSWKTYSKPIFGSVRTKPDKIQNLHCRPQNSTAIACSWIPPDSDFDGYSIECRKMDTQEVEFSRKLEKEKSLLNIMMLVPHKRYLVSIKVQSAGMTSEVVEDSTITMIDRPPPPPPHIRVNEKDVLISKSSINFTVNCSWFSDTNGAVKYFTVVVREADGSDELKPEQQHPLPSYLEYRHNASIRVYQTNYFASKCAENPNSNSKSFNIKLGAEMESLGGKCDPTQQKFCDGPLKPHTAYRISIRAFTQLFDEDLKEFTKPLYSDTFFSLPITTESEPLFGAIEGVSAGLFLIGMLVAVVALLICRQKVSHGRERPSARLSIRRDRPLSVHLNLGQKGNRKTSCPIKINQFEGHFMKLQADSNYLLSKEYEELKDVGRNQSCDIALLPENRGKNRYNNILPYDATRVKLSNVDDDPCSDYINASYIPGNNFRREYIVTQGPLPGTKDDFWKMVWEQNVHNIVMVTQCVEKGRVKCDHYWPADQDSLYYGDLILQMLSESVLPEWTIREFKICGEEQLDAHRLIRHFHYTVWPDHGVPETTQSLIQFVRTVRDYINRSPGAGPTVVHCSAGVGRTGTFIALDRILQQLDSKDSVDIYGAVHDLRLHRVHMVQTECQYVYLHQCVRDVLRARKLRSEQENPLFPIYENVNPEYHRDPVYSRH

Compound: COc1cc(CC(=O)NCC(NC(=O)C(CCCNC(=O)c2cccc(I)c2)NC(=O)C(Cc2ccc(C(F)(F)P(=O)(O)O)cc2)NC(=O)c2ccc(C)c(Br)c2)C(N)=O)ccc1O (stereo not drawn) [Compound 7]
- IC50 (PTPβ): > 10000 nM
- IC50 (SHP2): > 10000 nM
- IC50 (SHP1): > 10000 nM
- increase of phosphorylated IR (Tyr1162/1163) ([1]; 50 nM compound): 50%
- increase of Akt (Ser473) phosphorylation ([1]; 100 nM compound, 5 nM insulin): 3.1 fold
- increase of Foxo1 (Ser253) phosphorylation ([1]; 100 nM compound, 5 nM insulin): 2.1 fold
- increase of GSK-3β (Ser9) phosphorylation ([1]; 100 nM compound, 5 nM insulin): 1.5 fold
- increase of phosphorylated IR (Tyr1162/1163) ([1]; 100 nM compound): 100%
- insulin signaling pathway under basal conditions ([1]; 100 nM, one hour, no insulin): enhanced
- increase of Akt (Ser473) phosphorylation ([1]; 200 nM compound, 5 nM insulin): 4.5 fold
- increase of Foxo1 (Ser253) phosphorylation ([1]; 200 nM compound, 5 nM insulin): 2.9 fold
- increase of GSK-3β (Ser9) phosphorylation ([1]; 200 nM compound, 5 nM insulin): 2.0 fold
- Erk1/2 activation ([1]; insulin-stimulated hepatocytes): strongly enhanced
- increase of basal phosphorylation of Foxo1 ([1]; no insulin, 100 nM, 1 hour): 2.2 fold
- increase of basal phosphorylation of GSK-3β ([1]; no insulin, 100 nM, 1 hour): 2.0 fold
- increase of basal phosphorylation of IR ([1]; no insulin, 100 nM, 1 hour): 2.1 fold
- duration of potentiation of insulin stimulated IR phosphorylation ([1]; time course 0, 5, 30, 60 min, 5 nM insulin): at least 1 hour
- Pdk4, Igfbp1, and G6pc gene expression (Foxo1 transcriptional activity) [2]: synergistic reduction
